From patent publication US11040056B2, “Benzimidazoles that enhance the activity of oligonucleotides” (The University of North Carolina at Chapel Hill, priority 2018, dated 2021)

Assays:
[1] = tested on: HeLa Luc 705 cells; test: Confocal microscopy of endomembrane permeability and oligonucleotide localization; type: cell-based; conditions: 2 h
Protocol: FIG. 5A-5B. Effect on endomembrane permeability. FIG. 5A: HeLa Luc 705 cells (50 000) were seeded into glass-bottom dishes and incubated at 37° C. for attachment. Alexa 488-Dextran 10K (200 μg/mL) or TAMRA SSO 623 (2.5 μM) were added into the medium and the cells incubated for 24 h. Cells were washed with PBS and then placed back in the medium and treated with UNC2383 for 2 h or maintained as controls. Cells were rinsed after drug treatment. Live cells were imaged with an Olympus FV1200 or a Zeiss LSM710 confocal microscope. For the studies with Alexa 488 Dextran, the controls are shown in image panels a and b while cells treated with 10 μM UNC2383 are in image panels c and d. […] Images e and f are composites of TAMRA, Hoechst, and DIC images, and the pink coloration in f indicates overlap of the TAMRA and Hoechst fluorescence. Images are typical of three independent assays. Intensity settings were identical for fluorescence images with or without UNC2383. FIG. 5B quantitates the TAMRA fluorescence in the nucleus for controls versus cells treated with 5 μM UNC2383, as measured using Fiji software, with Hoechst stain used to delineate the nucleus (N=12).
FIG. 6. Confocal images of compound effects on nuclear distribution of a fluorescent oligonucleotide. […] Nuclei lacking fluorescence are indicated with gray arrows. […]
FIG. 7A-7B. […] Composite images showing TAMRA fluorescence, GFP, and DIC are provided. […]
(§1) Effects of UNC2383 on endosome stability were monitored in cell culture models as previously described. […] Live cells were imaged by fluorescence confocal microscopy with or without treatment with UNC2383 or its analogs. […] Co-localization of TAMRA labeled SSO 623 with marker proteins was quantitated using Fiji (ImageJ) software and expressed as a Manders' Correlation Coefficient. […] EGFP protein expression was monitored by immunostaining with an anti-EGFP antibody (Abcam) using techniques previously described. (3) EGFP immunostaining was analyzed using a Leica SP2 confocal microscope with acquisition parameters constant throughout the study: images were processed with Adobe Photoshop software. […]

[2] = tested on: EGFP654 transgenic mouse; test: In vivo EGFP splice correction in EGFP654 transgenic mice
Protocol: FIG. 10A-10E. In vivo effects-RNA. EGFP654 mice were treated with SSO623 or a mismatched control (MM) and then received UNC2383 or diluent (N=3). RT-PCR with gel analysis was used to detect correctly or incorrectly spliced EGFP mRNA. The gel images were quantitated using Fiji software. Gel image for liver FIG. 10A. The lower band (87 bp) is correctly spliced EGFP mRNA, while the upper band (160 bp) is uncorrected. FIG. 10B-10E Quantitation of splice correction in liver FIG. 10B, kidney FIG. 10C, intestine FIG. 10D, and lung FIG. 10E. The bars indicate the ratio of correctly spliced to incorrectly spliced mRNA×100. […] EGFP immunostaining was performed in liver, lung, and intestine tissue and analyzed by confocal microscopy. […]
as §1, with “described.” for “described. (3) EGFP immunostaining was analyzed using a Leica SP2 confocal microscope with acquisition parameters constant throughout the study: images were processed with Adobe Photoshop software.”
PCR techniques. […] The PCR products were separated on 1.5% agarose gels and bands were visualized by staining with Gel RedTMand quantitated using a Biorad ChemiDoc XRS+ scanner. […]

Compound: O=C(Nc1nc2ccccc2n1CCN1CCCC1)c1cc2cc(Cl)ccc2o1 [UNC2383]
- relocalization of TAMRA labeled SSO to the nucleus ([1]; 5 μM): partial but substantial relocalization
- colocalization of TAMRA-SSO with late endosomes and lysosomes (Manders' Correlation Coefficient) ([1]; 5 μM, GFP-Rab7, GFP-LAMP1): substantially reduced
- release of Alexa 488-Dextran from vesicular entrapment ([1]; 10 μM): partial release
- correctly spliced EGFP message (RT-PCR) ([2]; 35 mg/kg SSO623 i.p. two days, then 5 mg/kg UNC2383 i.p., liver, kidney, lung, intestine, 5 h): increase in correctly spliced EGFP message
- EGFP protein expression (immunostaining) ([2]; SSO623 plus UNC2383, bronchi, intestinal crypts, 24 h): expressed EGFP
